Key:
Assay in all cases: Tyrosine kinase activity inhibition rate in cell membrane fraction (Poly-Glu4-Tyr substrate)
Type in all cases: biochemical
Settings in all cases: for Inhibition rate: 25 μM kinase inhibitor, 25 μM ATP
[1] = tested on: tyrosine kinase in cell membrane fraction of MDA-MB-435S
Method: (§1) Breast cancer cell lines shown in Table 3 were cultured in a 150 mm dish so as to be about 80% confluent, the cells were recovered using PBS and a scraper, and a cell pellet was obtained by centrifugal operation (900×g, for 5 minutes, at 4° C.). The pellet was frozen with liquid nitrogen and stored at −80° C. until preparation of the measurement sample.
(§2) 500 μl of NP40 (−) solubilized buffer (20 mM HEPES (pH 7.4)), (w/v) % glycerol, 0.2% protease inhibitor cocktail (#P8340: Sigma-Aldrich (product composition: 104 mM AEBSF, 80 μM aprotinin, 4 mM bestatin, 1.4 mM E-64, 2 mM leupeptin, 1.5 mM Pepstatin A), 50 mM NaF and 200 μM Na3VO4) was added to the cell pellet, followed by stirring for 2 seconds three times using a vortex mixer. After being allowed to stand for 10 minutes, the soluble fraction was removed by centrifugal operation (at 20000×g, for 30 minutes, at 4° C.). The obtained pellet was resuspended in 500 μl of NP40 (−) solubilized buffer, the soluble fraction was again removed by centrifugal operation (at 20000×g, for 20 minutes, at 4° C.), and the pellet was washed. The pellet was resuspended by adding 500 μl of NP40 (+) solubilized buffer (a buffer prepared by adding NP-40 to the NP40 (−) solubilized buffer at a final concentration of 1%) to the pellet, pipetting fifty times, and vortexing for 2 seconds three times. After being allowed to stand for 10 minutes, a cell membrane fraction containing a membrane protein was obtained by centrifugal operation (at 20000×g, for 40 minutes, at 4° C.). The protein concentration of the fraction was measured by DC protein assay (#500-0116 JA: Bio-Rad) and the fraction was used as a sample for kinase activity measurement. The sample was frozen with liquid nitrogen and stored at −80° C. until used for the following kinase activity measurement.
(§3) NeutrAvidin Coated Plates (HBC) (96 white plate; #15509: Pierce) were washed three times with 300 μl of TBS-T (20 mM Tris-HCl (pH 7.4)), 150 mM NaCl, 0.1% Tween), and then 100 μl of Poly-Glu4-Tyr biotin conjugate (#12440: Upstate) which had been diluted to 1 μg/ml with TBS (20 mM Tris-HCl (pH 7.4), 150 mM NaCl) was added to the wells. After shaking at 37° C. and 400 rpm for 90 minutes, the wells were washed with 300 μl of TBS-T three times and a measuring plate was obtained.
(§4) The measurement sample was diluted with a kinase buffer (20 mM HEPES (pH 7.4), 25 mM MgCl2, 1.25 mM MnCl2, 250 μM Na3VO4, 12.5 (w/v) % glycerol) so as to adjust the protein concentration to 6.25 μg/ml. The diluted measurement sample was transferred to wells of a 96 well V bottom plate. A DMSO solution (inhibitor concentration: 5 mM) containing one type of tyrosine kinase inhibitors (Inhibitors 1 to 10 shown in Table 6) was added to the wells at a ratio of 1:160 based on the diluted measurement sample solution, followed by mixing thereof. As the control, DMSO was added to the diluted measurement sample at the same ratio as the solution of the inhibitor. The used tyrosine kinase inhibitors are represented as Inhibitors 1 to 10 in Table 6.
(§5) After addition of the inhibitors, a mixed solution of the measurement sample and the inhibitor was allowed to stand at room temperature for 10 minutes. 40 μl of the mixed solution was transferred to wells of the measuring plate and 10 μl of an ATP solution (20 mM HEPES (pH 7.4), […]) as the phosphate group donor was added to the wells.
(§6) The composition of the solution in the wells is as follows: protein concentration: 5 μg/ml, 20 mM HEPES (pH 7.4), 20 mM MgCl2, 1 mM MnCl2, 200 μM Na3VO4, 10 (w/v) % glycerol, 25 μM ATP, 25 μM kinase inhibitor.
(§7) After shaking the measuring plate at 37° C. and 400 rpm for 60 minutes, the solution was removed from the measuring plate, and the wells were washed with 300 μl of TBS-T three times. 100 μl of Starting Block T20 (TBS) (#37543: Pierce) as a blocking solution was added to the wells, followed by blocking at 37° C. and 400 rpm for 10 minutes. The blocking solution was removed from the measuring plate. […]

[2] = tested on: tyrosine kinase in cell membrane fraction of BT-474
Method: as §1, §2, §3, §4, §5, §6, §7

[3] = tested on: tyrosine kinase in cell membrane fraction of MDA-MB-468
Method: as §1, §2, §3, §4, §5, §6, §7

[4] = tested on: tyrosine kinase in cell membrane fraction of BT-20
Method: as §1, §2, §3, §4, §5, §6, §7

[5] = tested on: tyrosine kinase in cell membrane fraction of SK-BR-3
Method: as §1, §2, §3, §4, §5, §6, §7

[6] = tested on: tyrosine kinase in cell membrane fraction of ZR-75-30
Method: as §1, §2, §3, §4, §5, §6, §7

[7] = tested on: tyrosine kinase in cell membrane fraction of BT-549
Method: as §1, §2, §3, §4, §5, §6, §7

[8] = tested on: tyrosine kinase in cell membrane fraction of HS578T
Method: as §1, §2, §3, §4, §5, §6, §7

[9] = tested on: tyrosine kinase in cell membrane fraction of AU565
Method: as §1, §2, §3, §4, §5, §6, §7

[10] = tested on: tyrosine kinase in cell membrane fraction of HCC1806
Method: as §1, §2, §3, §4, §5, §6, §7

[11] = tested on: tyrosine kinase in cell membrane fraction of MDA-MB-415
Method: as §1, §2, §3, §4, §5, §6, §7

[12] = tested on: tyrosine kinase in cell membrane fraction of HCC1428
Method: as §1, §2, §3, §4, §5, §6, §7

[13] = tested on: tyrosine kinase in cell membrane fraction of HCC1937
Method: as §1, §2, §3, §4, §5, §6, §7

[14] = tested on: tyrosine kinase in cell membrane fraction of HCC1954
Method: as §1, §2, §3, §4, §5, §6, §7

[15] = tested on: tyrosine kinase in cell membrane fraction of MDA-MB-453
Method: as §1, §2, §3, §4, §5, §6, §7

[16] = tested on: tyrosine kinase in cell membrane fraction of ZR-75-1
Method: as §1, §2, §3, §4, §5, §6, §7

[17] = tested on: tyrosine kinase in cell membrane fraction of CAMA-1
Method: as §1, §2, §3, §4, §5, §6, §7

SMILES	Inhibition rate [1]	Inhibition rate [2]	Inhibition rate [3]	Inhibition rate [4]	Inhibition rate [5]	Inhibition rate [6]	Inhibition rate [7]	Inhibition rate [8]	Inhibition rate [9]	Inhibition rate [10]	Inhibition rate [11]	Inhibition rate [12]	Inhibition rate [13]	Inhibition rate [14]	Inhibition rate [15]	Inhibition rate [16]	Inhibition rate [17]	further results
COc1cc2ncnc(Nc3ccc(Oc4ccccc4)cc3)c2cc1OC [Inhibitor 10, 4-(4′-phenoxyanilino)-6,7-dimethoxyquinazoline]	44.9%	37.6%	81.0%	56.6%	43.3%	37.3%	60.6%	58.2%	36.8%	67.1%	68.6%	43.7%	50.1%	46.5%	16.3%	55.8%	34.6%	Example 1 Inhibitory capacity of Src inhibitor [1]: high (the term “high” means a cell line whose inhibition rate of the Src inhibitor is more than the threshold value); Example 1 Inhibitory capacity of Src inhibitor [2]: low (the term “low” means a cell line whose inhibition rate of the Src inhibitor is lower than the threshold value (=43.4%)); Example 1 Inhibitory capacity of Src inhibitor [3]: high (the term “high” means a cell line whose inhibition rate of the Src inhibitor is more than the threshold value); Example 1 Inhibitory capacity of Src inhibitor [4]: high (the term “high” means a cell line whose inhibition rate of the Src inhibitor is more than the threshold value); Example 1 Inhibitory capacity of Src inhibitor [5]: low (the term “low” means a cell line whose inhibition rate of the Src inhibitor is lower than the threshold value (=43.4%)); Example 1 Inhibitory capacity of Src inhibitor [6]: low (the term “low” means a cell line whose inhibition rate of the Src inhibitor is lower than the threshold value (=43.4%)); Example 1 Inhibitory capacity of Src inhibitor [7]: high (the term “high” means a cell line whose inhibition rate of the Src inhibitor is more than the threshold value); Example 1 Inhibitory capacity of Src inhibitor [8]: high (the term “high” means a cell line whose inhibition rate of the Src inhibitor is more than the threshold value); Example 1 Inhibitory capacity of Src inhibitor [9]: low (the term “low” means a cell line whose inhibition rate of the Src inhibitor is lower than the threshold value (=43.4%)); Example 1 Inhibitory capacity of Src inhibitor [10]: high (the term “high” means a cell line whose inhibition rate of the Src inhibitor is more than the threshold value); Example 1 Inhibitory capacity of Src inhibitor [11]: high (the term “high” means a cell line whose inhibition rate of the Src inhibitor is more than the threshold value); Example 1 Inhibitory capacity of Src inhibitor [12]: high (the term “high” means a cell line whose inhibition rate of the Src inhibitor is more than the threshold value); Example 1 Inhibitory capacity of Src inhibitor [13]: high (the term “high” means a cell line whose inhibition rate of the Src inhibitor is more than the threshold value); Example 1 Inhibitory capacity of Src inhibitor [14]: high (the term “high” means a cell line whose inhibition rate of the Src inhibitor is more than the threshold value); Example 1 Inhibitory capacity of Src inhibitor [15]: low (the term “low” means a cell line whose inhibition rate of the Src inhibitor is lower than the threshold value (=43.4%)); Example 1 Inhibitory capacity of Src inhibitor [16]: high (the term “high” means a cell line whose inhibition rate of the Src inhibitor is more than the threshold value); Example 1 Inhibitory capacity of Src inhibitor [17]: low (the term “low” means a cell line whose inhibition rate of the Src inhibitor is lower than the threshold value (=43.4%))
Cc1[nH]c(/C=C2\C(=O)Nc3ccc(S(=O)(=O)N(C)c4cccc(Cl)c4)cc32)c(C)c1C(=O)N1CCN(C)CC1 [Inhibitor 9]	80.3%	54.6%	65.0%	51.4%	66.1%	65.1%	81.4%	70.6%	55.6%	77.3%	56.7%	47.5%	52.6%	65.7%	64.4%	53.9%	60.2%	
Cc1cc(F)c(Nc2ncnc3cc(OCc4ccccc4)ccc23)cc1O.Cl [Inhibitor 8]	9.8%	18.0%	7.1%	18.5%	25.9%	10.1%	5.1%	5.5%	11.5%	6.4%	14.0%	2.2%	11.1%	4.1%	17.7%	0.6%	8.1%	
COc1cc2c(cc1OC)-c1[nH]nc(Nc3cccc(F)c3)c1C2 [Inhibitor 6]	40.6%	30.7%	1.4%	28.1%	45.3%	27.0%	50.1%	49.7%	18.4%	38.8%	50.9%	30.0%	41.8%	41.5%	28.9%	32.5%	15.9%	

Reference: patent publication US20110318768A1, “METHOD FOR DETERMINING SENSITIVITY OF TUMOR CELLS TO TYROSINE KINASE INHIBITOR AND COMPUTER PROGRAM PRODUCT” (SYSMEX CORPORATION, priority 2010, published 2011)
